Values quoted from earlier work in article PMC10544575, “Inhibitory mechanism of vortioxetine on CYP450 enzymes in human and rat liver microsomes” (Frontiers in Pharmacology, 2023).

Key:
Settings in all cases: in vitro; ref Wójcikowski et al., 2020; cited from earlier work
CYP1A2 = test system: CYP1A2; parameters: method as in Wójcikowski et al., 2020
CYP2D6 = CYP2D6 (Homo sapiens, UniProt P10635); parameters: 0.20 mg/mL HLMs or 0.20 mg/mL RLMs; from tissue; host or cells: human liver microsomes; method as in Wójcikowski et al., 2020
Chain of CYP2D6 (P10635 whole entry): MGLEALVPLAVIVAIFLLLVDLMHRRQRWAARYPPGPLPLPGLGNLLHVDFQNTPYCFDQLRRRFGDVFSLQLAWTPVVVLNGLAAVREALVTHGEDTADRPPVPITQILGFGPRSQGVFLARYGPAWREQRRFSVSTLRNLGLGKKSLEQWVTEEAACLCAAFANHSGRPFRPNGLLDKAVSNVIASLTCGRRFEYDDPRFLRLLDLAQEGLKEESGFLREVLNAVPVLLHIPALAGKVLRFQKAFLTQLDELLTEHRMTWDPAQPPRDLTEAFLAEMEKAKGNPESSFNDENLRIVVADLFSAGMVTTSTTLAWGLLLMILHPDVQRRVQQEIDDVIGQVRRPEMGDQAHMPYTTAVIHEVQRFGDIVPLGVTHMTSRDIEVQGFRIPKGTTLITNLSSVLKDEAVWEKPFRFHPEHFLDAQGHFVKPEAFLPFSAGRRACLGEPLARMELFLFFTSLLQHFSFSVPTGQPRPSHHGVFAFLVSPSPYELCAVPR

CYP3A4 = CYP3A4 (Homo sapiens, UniProt P08684); parameters: 0.20 mg/mL HLMs or 0.20 mg/mL RLMs; from tissue; host or cells: human liver microsomes; method as in Wójcikowski et al., 2020
Chain of CYP3A4 (P08684 whole entry): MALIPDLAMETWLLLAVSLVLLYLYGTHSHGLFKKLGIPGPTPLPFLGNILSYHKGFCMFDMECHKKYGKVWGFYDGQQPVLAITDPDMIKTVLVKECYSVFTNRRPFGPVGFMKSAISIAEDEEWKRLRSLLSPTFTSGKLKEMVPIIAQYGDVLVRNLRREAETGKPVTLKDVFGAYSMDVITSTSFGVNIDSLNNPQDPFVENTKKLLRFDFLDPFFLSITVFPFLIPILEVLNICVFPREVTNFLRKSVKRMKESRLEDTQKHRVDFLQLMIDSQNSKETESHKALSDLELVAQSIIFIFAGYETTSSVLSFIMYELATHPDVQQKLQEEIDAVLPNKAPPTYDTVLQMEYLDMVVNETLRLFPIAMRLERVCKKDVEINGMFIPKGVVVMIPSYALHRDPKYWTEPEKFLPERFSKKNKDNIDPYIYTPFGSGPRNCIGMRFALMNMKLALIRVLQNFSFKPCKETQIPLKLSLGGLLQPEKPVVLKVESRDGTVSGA

CN1CC2c3ccccc3Oc3ccc(Cl)cc3C2C1 (stereo not drawn) [asenapine]
significantly inhibited: inhibition of CYP1A2 (CYP1A2) | inhibition of CYP2D6 (CYP2D6) | inhibition of CYP3A4 (CYP3A4)
